In ChEMBL document CHEMBL3351929, “Halenaquinone inhibits RANKL-induced osteoclastogenesis” (Bioorg Med Chem Lett, 2014):
Active and inactive are the calls of the source. The rule behind the calls is not given here.

Assays:
Mus musculus [1] = organism: Mus musculus; experiment: Inhibition of sRANKL-induced […] degradation in mouse RAW264 cells at 20 uM pre-treated for 2 hrs before sRANKL stimulation measured 15 mins after sRANKL stimulation by Western blotting method; format: cell-based
RAW264 [2] = experiment: Inhibition of sRANKL-induced TRAP activity in mouse RAW264 cells at 20 uM by p-nitrophenolate release based TRAP assay; format: functional, cell-based
RAW264 [3] = experiment: Inhibition of sRANKL-induced osteoclastogenesis in mouse RAW264 cells assessed as reduction in TRAP-positive multinuclear osteoclasts formation at 20 uM incubated for 4 days by TRAP assay; format: functional, cell-based
[4] = Inhibition of sRANKL-induced TRAP activity in mouse RAW264 cells by p-nitrophenolate release based TRAP assay; format: functional, cell-based; conditions: RAW264.7
Mus musculus [5] = organism: Mus musculus; experiment: Inhibition of sRANKL-induced […] degradation in mouse RAW264 cells at 10 to 50 uM pre-treated for 2 hrs before sRANKL stimulation measured 15 mins after sRANKL stimulation by Western blotting method; format: cell-based
Mus musculus [6] = organism: Mus musculus; experiment: Inhibition of sRANKL-induced AKT phosphorylation in mouse RAW264 cells at 20 uM pre-treated for 2 hrs before sRANKL stimulation measured 15 mins after sRANKL stimulation by Western blotting method; format: cell-based
[7] = Inhibition of chymotrypsin-like activity of proteasome in rat liver using Suc-Leu-Leu-Val-Tyr-MCA fluorogenic substrate

## C[C@@]12CCC(=O)c3coc(c31)C(=O)c1cc3c(cc12)C(=O)C=CC3=O [HELENAQUINONE]
Mus musculus [1]
  inhibition: Active
RAW264 [2]
  inhibition: Active
RAW264 [3]
  inhibition: Active
[4]
  IC50: 2 µM
Mus musculus [5]
  inhibition: Active
Mus musculus [6]
  inhibition: Active
[7]
  IC50: 0.6 µM
